Earlier results on 1 molecule are cited in patent publication US6784266B2, “Dual stimuli-responsive hydrogels and their synthetic methods” (Korea Institute of Science and Technology, priority 2002, dated 2004).

The conditions of the data set: pKa stated for the sulfonamide reagent; no measurement method described.

In the case of `COc1ccc(NS(=O)(=O)c2ccc(N)cc2)nn1` [sulfamethoxypyridazine], the pKa is 6.7.

By pKa is commonly meant the pH at which an ionisable group is half protonated.
